Target: T1, ROCK2 (Homo sapiens, UniProt O75116)
T1 construct: purchased Thermo Fisher Scientific (Life Technologies) SelectScreen
Experiment: SelectScreen Z'LYTE
Type: biochemical
Method in brief: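 NU5455 was profiled across the SelectScreen Broad panel of kinase activity and binding assays. Z'LYTE reactions such as CSF1R ran at apparent Km ATP, while the Adapta CAMK1 assay used ATP listed as 10. Values are given as percent.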

T1 sequence (O75116 whole entry): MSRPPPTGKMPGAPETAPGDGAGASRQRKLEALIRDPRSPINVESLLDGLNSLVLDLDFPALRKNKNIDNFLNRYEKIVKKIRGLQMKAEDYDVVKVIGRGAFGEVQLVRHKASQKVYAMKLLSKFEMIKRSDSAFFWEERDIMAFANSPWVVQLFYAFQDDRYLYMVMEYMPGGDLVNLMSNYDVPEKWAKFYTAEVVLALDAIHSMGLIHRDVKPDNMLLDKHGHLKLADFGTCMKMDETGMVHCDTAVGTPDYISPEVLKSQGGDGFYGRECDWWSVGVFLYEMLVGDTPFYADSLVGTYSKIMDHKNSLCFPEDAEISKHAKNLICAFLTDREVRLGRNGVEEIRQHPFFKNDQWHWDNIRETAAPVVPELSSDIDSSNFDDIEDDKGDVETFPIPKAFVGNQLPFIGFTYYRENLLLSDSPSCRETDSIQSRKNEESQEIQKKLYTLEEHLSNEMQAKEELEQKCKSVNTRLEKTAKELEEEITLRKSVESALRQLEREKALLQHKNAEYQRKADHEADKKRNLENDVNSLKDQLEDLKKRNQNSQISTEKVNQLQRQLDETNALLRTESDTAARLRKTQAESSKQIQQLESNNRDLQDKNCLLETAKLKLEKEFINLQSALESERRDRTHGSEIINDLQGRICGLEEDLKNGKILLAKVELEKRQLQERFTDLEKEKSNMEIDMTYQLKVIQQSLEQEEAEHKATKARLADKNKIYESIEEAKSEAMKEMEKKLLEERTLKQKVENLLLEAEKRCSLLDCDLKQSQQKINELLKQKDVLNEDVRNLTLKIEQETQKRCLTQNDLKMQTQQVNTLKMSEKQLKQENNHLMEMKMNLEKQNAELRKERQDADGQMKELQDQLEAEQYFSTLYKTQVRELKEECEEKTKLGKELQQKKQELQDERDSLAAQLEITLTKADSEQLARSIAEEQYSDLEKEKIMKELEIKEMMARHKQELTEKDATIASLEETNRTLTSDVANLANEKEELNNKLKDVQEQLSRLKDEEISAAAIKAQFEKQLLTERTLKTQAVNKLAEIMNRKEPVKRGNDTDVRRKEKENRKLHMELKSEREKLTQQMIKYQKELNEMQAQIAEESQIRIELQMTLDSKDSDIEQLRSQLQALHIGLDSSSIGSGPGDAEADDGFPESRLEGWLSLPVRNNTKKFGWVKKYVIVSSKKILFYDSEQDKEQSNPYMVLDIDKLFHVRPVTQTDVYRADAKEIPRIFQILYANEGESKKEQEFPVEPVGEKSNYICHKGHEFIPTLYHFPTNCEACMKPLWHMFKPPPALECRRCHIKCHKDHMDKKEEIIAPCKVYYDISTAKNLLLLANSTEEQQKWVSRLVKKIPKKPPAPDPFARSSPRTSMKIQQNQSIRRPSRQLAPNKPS

CN(C(=O)CN1CCOCC1)c1ccc2sc3c(-c4cccc5c(=O)cc(N6CC7CCC(C6)O7)oc45)cccc3c2c1 [NU5455]
inhibition at 1 µM: -4.1%

Reference: publication PMC6934184, “Selective DNA-PKcs inhibition extends the therapeutic index of localized radiotherapy and chemotherapy” (The Journal of Clinical Investigation, 2019)
